# Molecular target: T1, hAhR (Homo sapiens, UniProt P35869)
# T1 construct: Stably integrated DRE-luciferase cell lines were generated by transducing the both cell lines with Cignal XRE luciferase reporter; endogenous in cells; host or cells: HEPG2 DRE-Luc cells (only the XRE luciferase reporter was transduced)
# T1 sequence (P35869 11-848): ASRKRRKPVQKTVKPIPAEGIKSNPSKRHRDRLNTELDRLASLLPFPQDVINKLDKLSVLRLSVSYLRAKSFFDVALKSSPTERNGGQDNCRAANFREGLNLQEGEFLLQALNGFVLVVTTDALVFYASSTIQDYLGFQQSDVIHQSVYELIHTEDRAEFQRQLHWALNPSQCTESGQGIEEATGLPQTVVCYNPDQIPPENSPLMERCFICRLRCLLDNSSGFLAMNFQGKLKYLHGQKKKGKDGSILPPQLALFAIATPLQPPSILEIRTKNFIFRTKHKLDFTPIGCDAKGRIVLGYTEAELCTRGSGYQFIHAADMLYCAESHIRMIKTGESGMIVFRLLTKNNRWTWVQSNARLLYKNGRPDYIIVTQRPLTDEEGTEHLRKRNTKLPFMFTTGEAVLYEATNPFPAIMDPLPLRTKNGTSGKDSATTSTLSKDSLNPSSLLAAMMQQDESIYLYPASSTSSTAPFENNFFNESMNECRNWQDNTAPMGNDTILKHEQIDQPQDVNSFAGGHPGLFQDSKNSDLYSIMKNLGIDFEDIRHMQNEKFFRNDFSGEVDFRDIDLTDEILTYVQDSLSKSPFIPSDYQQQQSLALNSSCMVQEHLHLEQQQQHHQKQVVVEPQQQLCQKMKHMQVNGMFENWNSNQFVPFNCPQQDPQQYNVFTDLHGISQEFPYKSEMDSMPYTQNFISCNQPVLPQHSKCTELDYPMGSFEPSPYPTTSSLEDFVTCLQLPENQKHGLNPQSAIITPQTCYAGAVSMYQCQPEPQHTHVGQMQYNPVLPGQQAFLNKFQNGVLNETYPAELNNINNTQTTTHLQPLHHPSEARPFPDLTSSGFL
# Test: DRE-luciferase transcriptional reporter assay in HEPG2 DRE-Luc cells, TCDD-induced (antagonist mode)
# Format: cell-based
# Conditions: relative IC50, 3 nM TCDD, 24-hour incubation, firefly luciferase readout
# Protocol: HEPG2 and HEPA1C1C7 cells were maintained in MEM and αMEM without nucleosides supplemented with 10% heat inactivated FBS respectively. Stably integrated DRE-luciferase cell lines were generated by transducing the both cell lines with Cignal XRE luciferase reporter (Qiagen) lentiviral particles according to the manufacturer protocol. For both cell lines stably integrated reporter cell lines were selected for the presence of 2 μg/mL puromycin. Following selection of stably integrated cell line pools, clonal cell lines were isolated by limiting dilution in 96-well plates. Transcriptional assays were performed by seeding 100 μL of cells at a density of 250,000 or 100,000 cells/mL, for HEPG2 and HEPA1C1C7 DRE-Luc cells respectively, into 96-well cell culture plates in OptiMEM supplemented with 0.5% heat inactivated FBS and allowed to attach overnight. For modulator assays, the compounds were added in a semi-log dose response using a D300e Digital Dispenser (Tecan) followed normalization with vehicle (DMSO). Immediately following compound addition 10 μL of 2,3,7,8-Tetrachlorodibenzo-p-dioxin (TCDD) was added to the cells to a final concentration of 3 nM or 0.3 nM for the HEPG2 and HEPA1C1C7 DRE-Luc cells respectively. Following 24-hour incubation, the medium was removed and the cells were lysed in 25 μL of Reporter Lysis Buffer (Promega). Firefly luciferase activity was measured immediately following the addition of 50 μL Luciferase Assay Reagent (Promega). The percent maximal activity for each point was determined using the following equation: (RLUsample−RLUvehicle−TCDD)/(RLUvehicle+TCDD RLUvehicle−TCDD)*100. The relative IC50, defined as the compound concentration required to reduce the TCDD induced response between the top and bottom plateau of each individual dose response curve by half, for each compound was determined using Prism 7 (GraphPad Software).
row,Compound,IC50
1,"Cc1cc(-c2ncc3cc(C(F)(F)F)ccc3n2)ccc1N1CCn2nc(C(=O)N3CCN(C)CC3)c(C)c2C1=O [Example 107, 3-methyl-5-(2-methyl-4-(6-(trifluoromethyl)quinazolin-2-yl)phenyl)-2-(4-methylpiperazine-1-carbonyl)-6,7-dihydropyrazolo[1,5-a]pyrazin-4 (5H)-one]",< 200 nM
2,"Cc1cc(-c2ncc3cc(C(F)(F)F)ccc3n2)ccc1N1CCn2nc(CN3CCC4(COC4)C3)c(C)c2C1=O [Example 111, 2-((2-oxa-6-azaspiro[3.4]octan-6-yl)methyl)-3-methyl-5-(2-methyl-4-(6-(trifluoromethyl)quinazolin-2-yl)phenyl)-6,7-dihydropyrazolo[1,5-a]pyrazin-4 (5H)-one]",< 200 nM
3,"Cc1cc(-c2ccc3cc(C(F)(F)F)ccc3n2)ccc1N1CCn2ncc(C)c2C1=O [compound 008, 3-methyl-5-(2-methyl-4-(6-(trifluoromethyl)quinolin-2-yl)phenyl)-6,7-dihydropyrazolo-[1,5-a]pyrazin-4 (5H)-one]",< 200 nM
4,"Cc1cc(-c2ncc3cc(C(F)(F)F)ccc3n2)ccc1N1CCn2nc(CN3CCC(F)(F)CC3)c(C)c2C1=O [Example 108, 2-((4,4-difluoropiperidin-1-yl)methyl)-3-methyl-5-(2-methyl-4-(6-(trifluoro-methyl)quinazolin-2-yl)phenyl)-6,7-dihydropyrazolo[1,5-a]pyrazin-4 (5H)-one]",< 200 nM
5,"Cc1cc(-c2ncc3cc(C(F)(F)F)ccc3n2)ccc1N1CCn2nc(COP(=O)(O)O)c(C)c2C1=O [Example 97, (3-methyl-5-(2-methyl-4-(6-(trifluoromethyl)quinazolin-2-yl)phenyl)-4-oxo-4,5,6,7-tetrahydropyrazolo[1,5-a]pyrazin-2-yl)methyl dihydrogen phosphate]",< 200 nM
6,"Cc1cc(-c2ncc3cc(C(F)(F)F)ccc3n2)ccc1N1CCn2ncc(C3NC(=O)NC3=O)c2C1=O (stereo not shown) [Example 94, 5-(5-(2-methyl-4-(6-(trifluoromethyl)quinazolin-2-yl)phenyl)-4-oxo-4,5,6,7-tetrahydropyrazolo[1,5-a]pyrazin-3-yl)imidazolidine-2,4-dione]",< 200 nM
7,"Cc1cc(N2CCn3ncc(C)c3C2=O)c(F)cc1-c1ncc2cc(C(F)(F)F)cc(C)c2n1 [compound 026, 5-(2-fluoro-5-methyl-4-(8-methyl-6-(trifluoromethyl)quinazolin-2-yl)phenyl)-3-methyl-6,7-dihydropyrazolo[1,5-a]pyrazin-4 (5H)-one]",< 200 nM
8,"Cc1cc(-c2ncc3cc(C(F)(F)F)ccc3n2)ccc1N1Cc2cnn(C)c2C1=O [compound 014, 1-methyl-5-(2-methyl-4-(6-(trifluoromethyl)quinazolin-2-yl)phenyl)-4,5-dihydropyrrolo[3,4-c]pyrazol-6 (1H)-one]",< 200 nM
9,"Cc1cc(-c2ncc3cc(C(F)(F)F)ccc3n2)ccc1N1CCOc2cn(CC#N)nc2C1=O [compound 035, 2-(7-(2-methyl-4-(6-(trifluoromethyl)quinazolin-2-yl)phenyl)-8-oxo-5,6,7,8-tetrahydro-2H-pyrazolo[3,4-f][1,4]oxazepin-2-yl)acetonitrile]",< 200 nM
10,Cc1cc(-c2ncc3cc(C(F)(F)F)ccc3n2)ccc1N1CCOc2cn[nH]c2C1=O [compound 033],< 200 nM
11,"2-((2-hydroxy-2-azaspiro[3.3]heptan-2-yl)methyl)-3-methyl-5-(2-methyl-4-(6-(trifluoromethyl)pyrido[3,2-d]pyrimidin-2-yl)phenyl)-6,7-dihydropyrazolo[1,5-a]pyrazin-4 (5H)-one [Example 109]",< 200 nM

# Now from value to compound:
row,IC50,Compound
1,< 200 nM,"Cc1cc(-c2ncc3cc(C(F)(F)F)ccc3n2)ccc1N1CCn2ncc(C(N)=O)c2C1=O [compound 066, 5-(2-methyl-4-(6-(trifluoromethyl)quinazolin-2-yl)phenyl)-4-oxo-4,5,6,7-tetrahydropyrazolo[1,5-a]pyrazine-3-carboxamide]"
2,200 to 500 nM,"Cc1cc(-c2ncc3nc(C(F)(F)F)ccc3n2)ccc1N1CCOc2nn(C)nc2C1=O [compound 042, 2-methyl-7-(2-methyl-4-(6-(trifluoromethyl)pyrido[3,2-d]pyrimidin-2-yl)phenyl)-6,7-dihydro-2H-[1,2,3]triazolo[4,5-f][1,4]oxazepin-8 (5H)-one]"
3,200 to 500 nM,"Cc1cc(-c2ncc3nc(F)ccc3n2)ccc1N1CCOc2cnn(C)c2C1=O [compound 051, 7-(4-(6-fluoropyrido[3,2-d]pyrimidin-2-yl)-2-methylphenyl)-1-methyl-6,7-dihydro-1H-pyrazolo[3,4-f][1,4]oxazepin-8 (5H)-one]"
4,1000 to 10000 nM,"Cc1cc(-c2ncc3cc(C(F)(F)F)ccc3n2)ccc1N1CCOc2cnn(CCN3CCC(F)(F)CC3)c2C1=O [compound 073, 1-(2-(4,4-difluoropiperidin-1-yl)ethyl)-7-(2-methyl-4-(6-(trifluoromethyl)-quinazolin-2-yl)phenyl)-6,7-dihydro-1H-pyrazolo[3,4-f][1,4]oxazepin-8 (5H)-one]"
5,1000 to 10000 nM,"Cc1cc(-c2ncc3cc(C(F)(F)F)ccc3n2)ccc1N1CCOc2cn(CC(=O)O)nc2C1=O [compound 078, 2-(7-(2-methyl-4-(6-(trifluoromethyl)quinazolin-2-yl)phenyl)-8-oxo-5,6,7,8-tetrahydro-2H-pyrazolo[3,4-f][1,4]oxazepin-2-yl)acetic acid]"
6,< 200 nM,"Cc1cc(-c2ncc3cc(C(F)(F)F)ccc3n2)ccc1N1CCn2nc(CN(C)C)c(C)c2C1=O [compound 063, 2-((dimethylamino)methyl)-3-methyl-5-(2-methyl-4-(6-(trifluoromethyl)-quinazolin-2-yl)phenyl)-6,7-dihydropyrazolo[1,5-a]pyrazin-4 (5H)-one]"
7,< 200 nM,"Cc1cc(-c2ncc3cc(C(F)(F)F)ccc3n2)ccc1N1CCOc2cnn(CC#N)c2C1=O [compound 036, 2-(7-(2-methyl-4-(6-(trifluoromethyl)quinazolin-2-yl)phenyl)-8-oxo-5,6,7,8-tetrahydro-1H-pyrazolo[3,4-f][1,4]oxazepin-1-yl)acetonitrile]"
8,< 200 nM,"CCOC(=O)c1nn2c(c1C)C(=O)N(c1ccc(-c3ncc4cc(C(F)(F)F)ccc4n3)cc1C)CC2 [compound 056, ethyl 3-methyl-5-(2-methyl-4-(6-(trifluoromethyl)quinazolin-2-yl)phenyl)-4-oxo-4,5,6,7-tetrahydropyrazolo[1,5-a]pyrazine-2-carboxylate]"
9,< 200 nM,"Cc1cc(-c2ncc3nc(C(F)(F)F)ccc3n2)ccc1N1CCOc2c(C(C)(C)O)nn(C)c2C1=O [compound 084, 3-(2-hydroxypropan-2-yl)-1-methyl-7-(2-methyl-4-(6-(trifluoromethyl)pyrido[3,2-d]pyrimidin-2-yl)phenyl)-6,7-dihydro-1H-pyrazolo[3,4-f][1,4]oxazepin-8 (5H)-one]"
10,< 200 nM,"Cn1ncc2c1C(=O)N(c1ccc(-c3ncc4nc(C(F)(F)F)ccc4n3)cc1)CCO2 [compound 050, 1-methyl-7-(4-(6-(trifluoromethyl)pyrido[3,2-d]pyrimidin-2-yl)phenyl)-6,7-dihydro-1H-pyrazolo[3,4-f][1,4]oxazepin-8 (5H)-one]"
11,1000 to 10000 nM,"Cc1cc(-c2ncc3cc(C(F)(F)F)ccc3n2)ccc1N1CCOc2cn(Cc3nnn[nH]3)nc2C1=O [compound 077, 2-((1H-tetrazol-5-yl)methyl)-7-(2-methyl-4-(6-(trifluoromethyl)-quinazolin-2-yl)phenyl)-6,7-dihydro-2H-pyrazolo[3,4-f][1,4]oxazepin-8 (5H)-one]"
